Laboratory results published in patent publication US20100189701A1, “METHODS AND COMPOSITIONS TO TREAT ARRHYTHMIAS” (priority 2007, published 2010).

Assays:
[1] = system: neonatal rat ventricular myocyte cultures; assay: Conduction velocity in neonatal rat ventricular myocyte cultures on multi-electrode array; assay type: cell-based
[2] = system: monomorphic ventricular tachycardia; details: one week after gene transfer; cited from earlier work
[3] = system: epicardial border zone; assay: Canine infarct epicardial border zone, electrograms and microelectrode study; assay type: in vivo, dog; details: dog, in vivo

Molecule: p-conotoxin GIIIA [μ-CTX GIIIA]
- effect on CV [1]: CV is reduced in SkM1 cultures to the level recorded in GFP cultures

Molecule: Cx43: connexin
- animals showing no inducible monomorphic VT [2]: 4 of 5

Molecule: NC1=N[C@H](O)[C@H]2[C@H]3O[C@]4(O)O[C@@H]([C@@H](O)[C@@]2(N1)[C@@H]4O)[C@]3(O)CO [TTX, tetrodotoxin]
- conduction velocity decrease [1]: 20%
- Vmax and membrane responsiveness response [3]: significant response to TTX

B1: HERG-G628S: dominant negative HERG mutant (protein, UniProt Q12809 1-1159, looked up, variant G628S)
Voltage-gated inwardly …: MPVRRGHVAPQNTFLDTIIRKFEGQSRKFIIANARVENCAVIYCNDGFCELCGYSRAEVMQRPCTCDFLHGPRTQRRAAAQIAQALLGAEERKVEIAFYRKDGSCFLCLVDVVPVKNEDGAVIMFILNFEVVMEKDMVGSPAHDTNHRGPPTSWLAPGRAKTFRLKLPALLALTARESSVRSGGAGGAGAPGAVVVDVDLTPAAPSSESLALDEVTAMDNHVAGLGPAEERRALVGPGSPPRSAPGQLPSPRAHSLNPDASGSSCSLARTRSRESCASVRRASSADDIEAMRAGVLPPPPRHASTGAMHPLRSGLLNSTSDSDLVRYRTISKIPQITLNFVDLKGDPFLASPTSDREIIAPKIKERTHNVTEKVTQVLSLGADVLPEYKLQAPRIHRWTILHYSPFKAVWDWLILLLVIYTAVFTPYSAAFLLKETEEGPPATECGYACQPLAVVDLIVDIMFIVDILINFRTTYVNANEEVVSHPGRIAVHYFKGWFLIDMVAAIPFDLLIFGSGSEELIGLLKTARLLRLVRVARKLDRYSEYGAAVLFLLMCTFALIAHWLACIWYAIGNMEQPHMDSRIGWLHNLGDQIGKPYNSSGLGGPSIKDKYVTALYFTFSSLTSVGFSNVSPNTNSEKIFSICVMLIGSLMYASIFGNVSAIIQRLYSGTARYHTQMLRVREFIRFHQIPNPLRQRLEEYFQHAWSYTNGIDMNAVLKGFPECLQADICLHLNRSLLQHCKPFRGATKGCLRALAMKFKTTHAPPGDTLVHAGDLLTALYFISRGSIEILRGDVVVAILGKNDIFGEPLNLYARPGKSNGDVRALTYCDLHKIHRDDLLEVLDMYPEFSDHFWSSLEITFNLRDTNMIPGSPGSTELEGGFSRQRKRKLSFRRRTDKDTEQPGEVSALGPGRAGAGPSSRGRPGGPWGESPSSGPSSPESSEDEGPGRSSSPLRLVPFSSPRPPGEPPGGEPLMEDCEKSSDTCNPLSGAFSGVSNIFSFWGDSRGRQYQELPRCPAPTPSLLNIPLSSPGRRPRGDVESRLDALQRQLNRLETRLSADMATVLQLLQRQMTLVPPAYSAVTTPGPGPTSTSPLLPVSPLPTLTLDSLSQVSQFMACEELPPGAPELPQEGPTRRLSLPGQLGALTSQPLHRHGSDPGS
- animals showing no inducible monomorphic VT [2]: 5 of 5
